≈ marks a conversion by molar mass, not a printed value.
Legend:
E. coli P-5101 = assay: In vitro antibacterial activity, twofold agar-dilution MIC; assay type: cell-based; conditions: Escherichia coli, P5101; E. coli P-5101, Gram -; calculated for free base; 20-hour incubation at 37° C; read-out: minimum inhibitory concentration (MIC)
Description: (§1) The antibacterial activity in vitro is show in Table 1. The numbers in the table show minimum inhibitory concentrations (MIC) (μg/ml), calculated for free base. The minimum inhibitory concentration was determined by the twofold agar-dilution method, which was recommended by Japan Society of Chemotherapy (Chemotherapy, 29(1), 76(1981)), using Muller-Hinton agar. One loopful of an overnight culture of test organisms in Mueller-Hinton broth was inoculated onto 10-ml drug-containing agar layers in petri dishes. Bacterial inocula contained approximately 10^6 colonyl-formingunits. Bacterial growth was observed after 20-hour incubation at 37° C. The MIC was defined as the lowest drug concentration which prevented visible bacterial growth.

E. coli P-51208 = assay: as above; assay type: cell-based; conditions: Escherichia coli, P51208; E. coli P-51208, Gram -; calculated for free base; 20-hour incubation at 37° C; read-out: minimum inhibitory concentration (MIC)
Description: as §1

E. coli P-51209 = assay: as above; assay type: cell-based; conditions: Escherichia coli, P51209; E. coli P-51209, Gram -; calculated for free base; 20-hour incubation at 37° C; read-out: minimum inhibitory concentration (MIC)
Description: as §1

K. pneumoniae 13 = assay: as above; assay type: cell-based; conditions: Klebsiella pneumoniae; K. pneumoniae 13, Gram -; calculated for free base; 20-hour incubation at 37° C; read-out: minimum inhibitory concentration (MIC)
Description: as §1

M. lacunata P-7102 = assay: as above; assay type: cell-based; conditions: M. lacunata P-7102, Gram -; calculated for free base; 20-hour incubation at 37° C; read-out: minimum inhibitory concentration (MIC)
Description: as §1

P. rettgeri IFO 3850 = assay: as above; assay type: cell-based; conditions: Providencia rettgeri, IFO3850; P. rettgeri IFO 3850, Gram -; calculated for free base; 20-hour incubation at 37° C; read-out: minimum inhibitory concentration (MIC)
Description: as §1

S. aureus 50774 = assay: as above; assay type: cell-based; conditions: Staphylococcus aureus; S. aureus 50774, Gram +; calculated for free base; 20-hour incubation at 37° C; read-out: minimum inhibitory concentration (MIC)
Description: as §1

S. aureus 80 = assay: as above; assay type: cell-based; conditions: Staphylococcus aureus; S. aureus 80, Gram +; calculated for free base; 20-hour incubation at 37° C; read-out: minimum inhibitory concentration (MIC)
Description: as §1

S. aureus Smith = assay: as above; assay type: cell-based; conditions: Staphylococcus aureus, Gram +, calculated for free base, 20-hour incubation at 37° C, read-out: minimum inhibitory concentration (MIC)
Description: as §1

S. epidermidis 8 = assay: as above; assay type: cell-based; conditions: Staphylococcus epidermidis; S. epidermidis 8, Gram +; calculated for free base; 20-hour incubation at 37° C; read-out: minimum inhibitory concentration (MIC)
Description: as §1

S. pyogenes A65 = assay: as above; assay type: cell-based; conditions: Streptococcus pyogenes; S. pyogenes A65, Gram +; calculated for free base; 20-hour incubation at 37° C; read-out: minimum inhibitory concentration (MIC)
Description: as §1

[1] = system: Staphylococcus aureus 50774; assay: In vivo efficacy against systemic infection in mice, S. aureus 50774; design: species or system mice (ddY-S); conditions: Staphylococcus aureus, 50774, 336 h, iv infection 5×10^8 cells, drug iv twice, immediately and 6 hours after infection, 14 days observation, calculated for free base, read-out: median effective dose (ED50)
Description: (§2) Compounds were each dissolved in deionized water. Each of the solutions was intravenously (iv) administered to mice infected by each of the test organisms under the conditions shown hereinbelow, and the median effective dose (ED50) was calculated by probit analysis. The numerals in the table show ED50 (mg/kg) value, caluclated for free base. Experimental conditions: Mice: Male mice (ddY-S) weighing about 20 g Infection: Staphylococcus aureus 50774 Intravenous infection with 5×10^8 cells per mouse suspended in saline. Medication: Twice, immediately and 6 hours after infection. Observation: For 14 days in the case of Staphylococcus aureus 50774. For 7 days in the case of Streptococcus pyogenes […].

[2] = system: Streptococcus pyogenes A65; assay: In vivo efficacy against systemic infection in mice, S. pyogenes A65; design: species or system mice (ddY-S); conditions: A65, 168 h, intraperitoneal infection 3×10^7 cells, drug iv twice, immediately and 6 hours after infection, 7 days observation, calculated for free base, read-out: median effective dose (ED50)
Description: as §2, with “Streptococcus pyogenes […] Intraperitoneal” for “Staphylococcus aureus 50774 Intravenous”, “3×10^7” for “5×10^8”, “brain heart infusion broth.” for “saline.”

Solubility in water = assay type: physicochemical; conditions: distilled water, 25° C overnight
Description: The sample was added to distilled water (10 ml) and the solution was shaken in the supersaturated state for 30 minutes. After incubation at 25° C. overnight, the solution was filtered with a microfilter. The filtrate was diluted with 0.1 N hydrochloric acid. The absorbance at 270 nm of the solution was measured and the concentration (μg/ml) of the sample was calculated from a calibration curve separately prepared.

Row | Compound | MIC (E. coli P-5101) [µg/mL] | MIC (E. coli P-51208) [µg/mL] | MIC (E. coli P-51209) [µg/mL] | MIC (K. pneumoniae 13) [µg/mL] | MIC (M. lacunata P-7102) [µg/mL] | MIC (P. rettgeri IFO 3850) [µg/mL] | MIC (S. aureus 50774) [µg/mL] | MIC (S. aureus 80) [µg/mL] | MIC (S. aureus Smith) [µg/mL] | MIC (S. epidermidis 8) [µg/mL] | MIC (S. pyogenes A65) [µg/mL] | solubility (Solubility in water) [µg/mL] | ED50 [1] [mg/kg] | ED50 [2] [mg/kg]
1 | Cl.NC[C@@H]1CN(c2nc3c(cc2F)c(=O)c(C(=O)O)cn3C2CC2)C[C@@H]1Cl (relative stereo) [2-cis.HCl, 7-(cis-3-aminomethyl-4-chloro-1-pyrrolidinyl)-1-cyclopropyl6-fluoro-1,4-dihydro-4-oxo-1,8-naphthyridine-3-carboxylic acid hydrochloride] | 0.0125 | 0.78 | 0.78 | 0.05 | 3.13 | 0.05 | 0.025 | 0.0125 | 0.025 | 0.0125 | 0.025 | – | 0.355 | 0.235
2 | CNC[C@@H]1CN(c2nc3c(cc2F)c(=O)c(C(=O)O)cn3C2CC2)C[C@@H]1F (relative stereo) [3-cis, 1-cyclopropyl-6-fluoro-7-(cis-4-fluoro-3-methylaminomethyl-1-pyrrolidinyl)-1,4-dihydro-4-oxo-1,8-naphthyridine-3-carboxylic acid] | – | – | – | – | – | – | – | – | – | – | – | 789 (≈ 2090 µM) | – | –
3 | CCNC[C@@H]1CN(c2nc3c(cc2F)c(=O)c(C(=O)O)cn3C2CC2)C[C@H]1F.Cl (relative stereo) [4-trans.HCl, 1-cyclopropyl-7-(trans-3-ethylaminomethyl-4-fluoro-1-pyrrolidinyl)-6-fluoro-1,4-dihydro-4-oxo-1,8-naphthyridine-3-carboxylic acid hydrochloride] | 0.0125 | 0.78 | 0.78 | 0.05 | 3.13 | 0.05 | 0.025 | 0.0125 | 0.025 | 0.0125 | 0.05 | – | – | 0.267
4 | NC[C@@H]1CN(c2nc3c(cc2F)c(=O)c(C(=O)O)cn3C2CC2)C[C@@H]1F (relative stereo) [Compound No. 1-cis, 7-(cis-3-aminomethyl-4-fluoro-1-pyrrolidinyl)-1-cyclopropyl-6-fluoro-1,4-dihydro-4-oxo-1,8-naphthyridine-3-carboxylic acid] | – | – | – | – | – | – | – | – | – | – | – | 927 (≈ 2540 µM) | – | –
5 | Cl.NC[C@@H]1CN(c2nc3c(cc2F)c(=O)c(C(=O)O)cn3C2CC2)C[C@@H]1F (relative stereo) [Compound No. 1-cis.HCl, 7-(cis-3-aminomethyl-4-fluoro-1-pyrrolidinyl)-1-cyclopropyl-6-fluoro-1,4-dihydro-4-oxo-1,8-naphthyridine-3-carboxylic acid hydrochloride] | 0.0125 | 0.78 | 0.78 | 0.05 | 6.25 | 0.05 | 0.025 | 0.025 | 0.025 | 0.0125 | 0.0125 | – | 0.274 | 0.365
6 | NC[C@@H]1CN(c2nc3c(cc2F)c(=O)c(C(=O)O)cn3C2CC2)C[C@@H]1Cl (relative stereo) [Compound No. 2-cis, 7-(cis-3-aminomethyl-4-chloro-1-pyrrolidinyl)-1-cyclopropyl-6-fluoro-1,4-dihydro-4-oxo-1,8-naphthyridine-3-carboxylic acid] | – | – | – | – | – | – | – | – | – | – | – | 713 (≈ 1870 µM) | – | –

Now from value to compound, other results behind:

Row | MIC (E. coli P-5101) [µg/mL] | MIC (E. coli P-51208) [µg/mL] | MIC (E. coli P-51209) [µg/mL] | MIC (K. pneumoniae 13) [µg/mL] | MIC (M. lacunata P-7102) [µg/mL] | MIC (P. rettgeri IFO 3850) [µg/mL] | MIC (S. aureus 50774) [µg/mL] | MIC (S. aureus 80) [µg/mL] | MIC (S. aureus Smith) [µg/mL] | MIC (S. epidermidis 8) [µg/mL] | MIC (S. pyogenes A65) [µg/mL] | solubility (Solubility in water) [µg/mL] | Compound | ED50 [1] [mg/kg] | ED50 [2] [mg/kg]
7 | 0.0063 | 0.78 | 0.78 | 0.05 | 3.13 | 0.05 | 0.025 | 0.025 | 0.025 | 0.0125 | 0.025 | – | Cl.NC[C@@H]1CN(c2nc3c(cc2F)c(=O)c(C(=O)O)cn3C2CC2)C[C@H]1F (relative stereo) [Compound No. 1-trans.HCl, 7-(trans-3-aminomethyl-4-fluoro-1-pyrrolidinyl)-1-cyclopropyl-6-fluoro-1,4-dihydro-4-oxo-1,8-naphthyridine-3carboxylic acid hydrochloride] | – | –
8 | 0.39 | 6.25 | 12.5 | 0.39 | 50 | 0.78 | 0.2 | 0.39 | 0.1 | 0.1 | 0.39 | – | CCn1cc(C(=O)O)c(=O)c2cc(F)c(N3CCC(CN)C3)nc21.Cl (stereo not drawn) [Compound A, 7-(3-aminomethyl-1-pyrrolidinyl)-1-ethyl-6-fluoro-1,4-dihydro-4-oxo-1,8-naphthyridine-3-carboxylic acid hydrochloride, reference compound] | 2.79 | 3.75
9 | 0.025 | 3.13 | 3.13 | 0.1 | 12.5 | 0.1 | 0.025 | 0.05 | 0.05 | 0.025 | 0.05 | – | Cl.NCC1CCN(c2nc3c(cc2F)c(=O)c(C(=O)O)cn3C2CC2)C1 (stereo not drawn) [Compound B, 7-(3-aminomethyl-1-pyrrolidinyl)-1-cyclopropyl-6-fluoro-1,4-dihydro-4-oxo-1,8-naphthyridine-3-carboxylic acid hydrochloride, reference compound] | 0.701 | 0.601
